Test results taken from patent US20140302012A1, “Combination Therapies for Treating Hematologic Malignancies Using Pyridopyrimidinone Inhibitors of PI3K/mTOR with Bendamustine and/or Rituximab” (priority 2011, published 2014).
Like-named read-outs stand apart in the source and are kept apart here.

Legend:
[1] = assay type: in vivo
Protocol: The animals required to begin a given experiment were pooled and implanted monolaterally on day 0. Treatments were administered on measurable tumors. The solid tumors were allowed to grow to the desired volume range (animals with tumors not in the desired range were excluded). The mice were then pooled and unselectively distributed to the various treatment and control groups. Treatment started 20 days post WSU-DLCL2 tumor fragment implantation as indicated in the results section and in each table. The dosages are expressed in mg/kg, based on the body weight at start of therapy. Mice were checked daily, and adverse clinical reactions noted. Each group of mice was weighed as a whole daily until the weight nadir was reached. Then, groups were weighed once to thrice weekly until the end of the experiment. Tumors were measured with a calliper 2 to 3 times weekly until final sacrifice for sampling time, tumor reached 2000 mm^3 or until the animal died (whichever comes first). Solid tumor volumes were estimated from two-dimensional tumor measurements and calculated according to the following equation: […]
The day of death was recorded. Surviving animals were sacrificed and macroscopic examination of the thoracic and abdominal cavities was performed.
A dosage producing a 15% body weight loss (BWL) during three consecutive days (mean of group), 20% BWL during 1 day or 10% or more drug deaths was considered an excessively toxic dosage. Animal body weights included the tumor weight.

[2] = Chemical stability of Compound A stock solution; assay type: physicochemical; conditions: formulation in 1N HCl and water for injection, final pH 3; in the dark at 4° C.
Protocol: (§1) Compound A formulations were prepared in 1N HCl and water for injection, final pH was 3, followed by five cycles of vortexing and sonicating. The stock solution was chemically stable 7 days in the dark at 4° C. The volume of PO administration per mouse was 10 mL/kg.

human WSU-DLCL2 = test: Antitumor activity against human WSU-DLCL2 xenografts in SCID female mice; assay type: in vivo; conditions: for Median (nMad) tumor volume changes from baseline: n = 7
Protocol: To evaluate the antitumor activity of Bendamustine in combination with the dual pan-PI3K/mTOR inhibitor Compound A, experiments were conducted using female SCID mice bearing human WSU-DLCL2 xenografts. In this study, Bendamustine at 3.5 and 7 mg/kg was tested in combination with Compound A at 20 mg/kg.
CB17/1CR-Prkdc severe combined immunodeficiency (SCID)/Crl mice, at 8-10 weeks old, were bred at Charles River France (Domaine des Oncins, 69210 L'Arbreste, France) from strains obtained from Charles River, USA. Mice were over 18 g at start of treatment after an acclimatization time of at least 5 days. […] They were housed on a 12 hours light/dark cycle. Environmental conditions including animal maintenance, room temperature (22° C.±2° C.), relative humidity (55%±15%) and lighting times were recorded by the supervisor of laboratory animal sciences and welfare (LAW) and the records are archived.
The human WSU-DLCL2 tumor model was established by implanting (SC) small tumor fragments and was maintained in SCID female mice using serial passages.
Bendamustine formulation was prepared by incorporating the compound into NaCl 0.9% at pH 3. The preparation was prepared daily prior administration. The volume of IP administration per mouse was 10 mL/kg.
as §1
For subcutaneous implantation of tumor cells, skin in the flank of the mice was disinfected using alcohol or Betadine® solution (Alcyon) and a suspension of tumor cells was inoculated SC unilaterally under a volume of 0.2 mL using a 23 G needle.
The animals required to begin a given experiment were pooled and implanted monolaterally on day 0. Treatments were administered on measurable tumors. The solid tumors were allowed to grow to the desired volume range (animals with tumors not in the desired range were excluded). The mice were then pooled and unselectively distributed to the various treatment and control groups. […] The dosages are expressed in mg/kg, based on the body weight at start of therapy. Mice were checked daily, and adverse clinical reactions noted. Each group of mice was weighed as a whole daily until the weight nadir was reached. Then, groups were weighed once to thrice weekly until the end of the experiment. Tumors were measured with a calliper 2 to 3 times weekly until final sacrifice for sampling time, tumor reached 2000 mm^3 or until the animal died (whichever comes first). Solid tumor volumes were estimated from two-dimensional tumor measurements and calculated according to the following equation:
Tumor weight (mg)=Length (mm)×Width^2(mm^2)/2
The primary efficacy end points are ΔT/ΔC, percent median regression, partial and complete regressions (PR and CR).
Changes in tumor volume for each treated (T) and control (C) group were calculated for each tumor by subtracting the tumor volume on the day of first treatment (staging day) from the tumor volume on the specified observation day. The median ΔT is calculated for the treated group, and the median ΔC is calculated for the control group. Then the ratio ΔT/ΔC is calculated and expressed as a percentage. The dose is considered as therapeutically active when ΔT/ΔC is lower than 40% and very active when ΔT/ΔC is lower than 10%.
Partial regression: Regressions are defined as partial if the tumor volume decreases to 50% or the tumor volume at the start of treatment.
Complete regression: The CR is achieved when tumor volume=0 mm^3 (CR is considered when tumor volume cannot be recorded).
The term “therapeutic synergy” is used when the combination of two products at given doses is more efficacious than the best of the two products alone considering the same doses.

[3] = Maximum tolerated dose of Compound A administered as single agent; conditions: twice daily
[4] = Compound A 20 mg/kg per injection (total 240) PO, days 20-31
[5] = Bendamustine 3.5 mg/kg per injection (total 21) IP, days 20-25
[6] = Bendamustine 7 mg/kg per injection (total 42) IP, days 20-25

CCn1c(=O)c(-c2ccn[nH]2)cc2c(C)nc(N)nc21 [Compound A, 2-amino-8-ethyl-4-methyl-6-(1H-pyrazol-5-yl)pyrido[2,3-d]pyrimidin-7(8H)-one]
Drug death (Day of death) [1, 4]: 0/7 | Average body weight change in % per mouse at nadir ([1]; mouse, in vivo, po, 20 mg/kg): −2.0% | day of nadir (body weight) ([1]; mouse, in vivo, po, 20 mg/kg): 21 days | Chemical stability of stock solution [2]: 7 days | Regressions Complete (human WSU-DLCL2; [4]): 0/7 | Regressions Partial (human WSU-DLCL2; [4]): 0/7 | Median ΔT/ΔC in % day 31 (human WSU-DLCL2; Compound A 20 mg/kg per injection (total 240) PO, days 20-31, day 31, 20 mg/kg): 54% | Median (nMad) tumor volume changes from baseline (human WSU-DLCL2; Compound A 20 mg/kg, Day 24): 145 (139.4) | Median (nMad) tumor volume changes from baseline (human WSU-DLCL2; Compound A 20 mg/kg, Day 26): 218 (26.7) | Median (nMad) tumor volume changes from baseline (human WSU-DLCL2; Compound A 20 mg/kg, Day 28): 242 (172) | Median (nMad) tumor volume changes from baseline (human WSU-DLCL2; Compound A 20 mg/kg, Day 31): 314 (317.3) | MTD of Compound A administered as single agent [3]: 50 mg BID

Cn1c(CCCC(=O)O)nc2cc(N(CCCl)CCCl)ccc21 [Bendamustine, 4-[5-[Bis(2-chloroethyl)amino]-1-methylbenzimidazol-2-yl]butanoic acid]
Average body weight change in % per mouse at nadir [1, 5]: −3.8% | Drug death (Day of death) [1, 5]: 0/7 | day of nadir (body weight) [1, 5]: 28 days | Average body weight change in % per mouse at nadir [1, 6]: −7.2% | Drug death (Day of death) [1, 6]: 0/7 | day of nadir (body weight) [1, 6]: 27 days | Tolerability ([1]; as single agents or in combination: Bendamustine 3.5 and 7 mg/kg, Compound A 20 mg/kg): tolerated | Regressions Complete (human WSU-DLCL2; [5]): 0/7 | Regressions Partial (human WSU-DLCL2; [5]): 0/7 | Median (nMad) tumor volume changes from baseline (human WSU-DLCL2; Bendamustine 3.5 mg/kg, Day 24): 170 (62.3) | Median (nMad) tumor volume changes from baseline (human WSU-DLCL2; Bendamustine 3.5 mg/kg, Day 26): 222 (89) | Median (nMad) tumor volume changes from baseline (human WSU-DLCL2; Bendamustine 3.5 mg/kg, Day 28): 268 (252) | Median (nMad) tumor volume changes from baseline (human WSU-DLCL2; Bendamustine 3.5 mg/kg, Day 31): 483 (247.6) | Regressions Complete (human WSU-DLCL2; [6]): 0/7 | Regressions Partial (human WSU-DLCL2; [6]): 0/7 | Median (nMad) tumor volume changes from baseline (human WSU-DLCL2; Bendamustine 7 mg/kg, Day 24): 267 (198.7) | Median (nMad) tumor volume changes from baseline (human WSU-DLCL2; Bendamustine 7 mg/kg, Day 26): 317 (258) | Median (nMad) tumor volume changes from baseline (human WSU-DLCL2; Bendamustine 7 mg/kg, Day 28): 306 (268.4) | Median (nMad) tumor volume changes from baseline (human WSU-DLCL2; Bendamustine 7 mg/kg, Day 31): 477 (249.1)
